This passage reports EC50 and IC50 results from US20240246960A1 (adMare Therapeutics Society, priority 2021, published 2024).

Where two headings read alike, the source gives them in different places.

Assay [1] concerns the target T1, pDNA-PK ser2056 induction in HCT116 spheroids (Homo sapiens, UniProt P78527).
T1 construct: endogenous in cells; host or cells: HCT116 multicellular tumour spheroids
Kind of assay: Multicellular tumour spheroid + radiation, pDNA-PK inhibition, HCT116. In kind it is cell-based. Particulars: 20 Gy. On the procedure:
Multicellular tumour spheroids determination of compound inhibition of pDNA-PK induction following radiation. Tumour spheroids were grown to approximately 0.5 mm in diameter and irradiated with 20 Gy in combination with inhibitor test compounds to determine their potency. Inhibitor concentration for 50% reduction in pDNA-PK induction (IC50) was determined via immunohistochemical staining in spheroid cryosections taken 2 hours following radiation.
Spheroid, Cell Line: […], Immunohistochemical endpoint, pDNA-PK inhibition, EC50 in μm.
Spheroid+radiation pDNA-PK. Radiation: 20 Gy. Drug: serial dilution 5 or 10 μM down to 3.5 nM (11 wells). Spheroids: 3-6 spheroids per well (300-500 μm diameter). 20% O2 and 5% CO2. 96 well plate format.
Protocol: pre-incubate 1 hours with drug, irradiate with 20 Gy, post-incubate 2 hours with drug, freeze and cryosection ×3 replicates.
Endpoint: fluorescent immunostin pDNA-PK ser2056 and image on microscope.
Analysis: determine EC50 concentration that decreases pDNA-PK induction by 50% after radiation.
Multicellular tumour spheroids determination of compound inhibition of pDNA-PK induction following radiation. Tumour spheroids were grown to approximately 0.5 mm in diameter and irradiated with 20 Gy in combination with inhibitor test compounds to determine their potency. Inhibitor concentration for 50% reduction in pDNA-PK induction (IC50) was determined via immunohistochemical staining in spheroid cryosections taken 2 hours following radiation. For cell survival endpoint 8 Gy radiation was used and 3 hours following radiation spheroids were dissociated, counted and plated for colony forming endpoint.
Spheroid+radiation pDNA-PK. Radiation: 20 Gy. Drug: serial dilution 5 or 10 μM down to 3.5 nM (11 wells). Spheroids: 3-6 spheroids per well (300-500 μm diameter). 20% O2 and 5% CO2. 96 well plate format. Endpoint: fluorescent immunostain pDNA-PK ser2056 and image on microscope. Analysis: determine EC50 concentrations that decreases pDNA-PK induction […] after irradiation.
Multicellular tumour spheroids were used to determine potency of test compounds in a 3D tissue environment using inhibition of pDNA-PK induction following radiation or cell survival as the endpoint. For the pDNA-PK endpoint HCT116 or FaDU tumour spheroids were grown to approximately 0.5 mm in diameter and irradiated with 20 Gy in combination with inhibitor test compounds to determine their potency. Experiments were carried out in 96 well plates containing 0.7 mls of MEM media containing 10% FBS and 10 mM glucose under 20% O2 & 5% CO2 at 37° C. Following dilution of compounds 1:1000 from DMSO stocks, compounds were serially diluted from 10 μM down to 3.5 nM and 5-10 spheroids added. 96 well plates were constantly stirred to avoid spheroids settling during the course of the experiment. The inhibitor concentration for 50% reduction in pDNA-PK induction (EC50) was determined via immunohistochemical staining in spheroid cryosections taken 2 hours following radiation using anti-pDNA-PK (ser 2056) and fixed immediately in formalin following sectioning. For cell survival endpoint 8 Gy radiation was used and, 3 hours following radiation, spheroids were dissociated, counted and plated for colony forming endpoint. Data presented in the table compound potency as EC50 [μM].

The target of assay [2] is T2, DNA-PK (Homo sapiens, UniProt P78527).
T2 construct: purchased Invitrogen PR9107A
Kind of assay: DNA-PK Assay for Biochemical Enzymatic Inhibition (ADP Glo Kinase assay). On the procedure: A biochemical assay was performed to identify IC50 values against DNA-PK activity in a two-step reaction with a kinase reaction followed by ADP Glo™ Kinase assay Kit (Promega V9102).
Three-fold serial dilutions of compounds in DMSO were prepared in kinase assay buffer (50 mM HEPES pH 7.5, 20 mM MgCl2, 100 mM KCl, 50 μM DTT, 10 μg/ml calf thymus DNA, 0.01% Tween 20). Kinase assay buffer was used to prepare compound treatments to 0.02% DMSO (dimethyl sulphoxide) content. DMSO controls were prepared to produce a maximum and minimum luminescence signal for normalization. Substrate (Anaspec, AS-60210-5) and ATP (Promega V9102) and ATP mix was prepared by dilution in kinase assay buffer for 434.4 μM and 64.4 μM final assay concentrations, respectively. Compounds and control were added to 25 ng DNA-PK enzyme (Invitrogen, PR9107A) diluted in kinase buffer in assay plate (Corning 267459) and incubated for 15 minutes at room temperature prior to addition of substrate and ATP mix.
Throughout the assay, each time a reagent was added to the microplate, it was centrifuged for 1 minute at 1300 rcf. All reagents were added, and incubations carried out at room temperature. The reaction was then incubated for 60 minutes. ADP-ATP standards at 0, 4, 10, 40, 80, and 100% ADP (prepared as specified in the ADP Glo™ Kinase assay kit) were also added to the microplate at a volume equal to the total kinase reaction. The ADP Glo™ Kinase Assay kit was then used to quantify DNA-PK activity: following the 60-minute incubation, a 1:1 volume of ADP Glo reagent was added to all wells, then following a further 45-minute incubation, a 1:1 volume of Kinase Detection Reagent was added to all wells. After this two-step assay, plates were incubated in a Synergy-Neo2 plate reader for 30 minutes with gentle shaking, followed by endpoint luminescent read Luminescence data was normalized by subtracting the background signal and expressing all background-adjusted values as a percentage of the average maximum signal. The data was then expressed as percent inhibition by subtracting from 100% (i.e. maximum luminescent signal will be 0% inhibition) and the resulting data plotted against ten concentration points on a logarithmic scale, using GraphPad Prism. Non-linear regression analysis was performed on each concentration response curve and the log [inhibitor] vs response—variable slope (four parameters) equation was selected to generate IC50 values.
In general terms: ADP-Glo turns the ADP formed in a reaction into a luminescent signal.

Assay [3] has as its target T3, DNA-PK phosphorylation at Serine 2056 (Homo sapiens, UniProt P78527).
T3 construct: host or cells: FaDu
Kind of assay: Cellular Assay for Inhibition of DNA-PK Phosphorylation at Serine 2056 (FaDu cells, neocarzinostatin, sandwich ELISA). The format is cell-based. The essentials:
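FaDu cells were pretreated with compound (0.3% DMSO) for 1 h, then exposed to neocarzinostatin at 1 μg/mL final for 2 h to induce DSBs. Protein-normalized lysates were assayed by MSD sandwich ELISA for total and pSer2056 DNA-PK. IC50 came from variable-slope fits of % inhibition relative to DMSO and NCS controls.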

Setting [4] is: Example 7, spheroid, cell line HCT115 [sic], 20% O2, read-out: EC50 (pDNA-PK inhibition, immunohistochemical endpoint).
Where [5] appears, read: Example 8, spheroid, read-out: Cell line: HCT116 Immunohistochemical endpoint pDNA-PK inhibition EC50.
[6] abbreviates: Example 9 Study 2, 20% O2, read-out: Spheroid Cell line: HCT116 Immunohistochemical endpoint pDNA-PK inhibition EC50.

For orientation: EC50 means the concentration needed to bring the measured effect to its halfway point. One may read the IC50 as the midpoint of a concentration-inhibition curve. For `Cc1cn([C@H]2CC[C@@H](Oc3nc(N4CCOCC4)cc4ncccc34)CC2)nc1C(F)(F)F` [Compound 17e, 4-(5-(((1s,4s)-4-(4-methyl-3-(trifluoromethyl)-1H-pyrazol-1-yl)cyclohexyl)oxy)-1,6-naphthyridin-7-yl)morpholine], the EC50 in assay [1] (setting [4]) and in assay [1] (setting [5]) was 1 to 10 µM each time. Also, the IC50 in assay [2] (Table 1) fell in the range of 1 to 10 nM; in assay [3] (Table 1) it was 100 to 1000 nM.
With `Cc1cnn([C@H]2CC[C@@H](Oc3nc(N4CCOCC4)cc4ncccc34)CC2)c1C(F)(F)F` [Compound 17f, 4-(5-(((1s,4s)-4-(4-methyl-5-(trifluoromethyl)-1H-pyrazol-1-yl)cyclohexyl)oxy)-1,6-naphthyridin-7-yl)morpholine], the EC50 in assay [1] (setting [4]) and in assay [1] (setting [5]) was 10 to 100 µM throughout. The results for the IC50 in assay [2] (Table 1) and in assay [3] (Table 1) were 1 to 10 nM and 10000 to 30000 nM, respectively.
On to `Cc1c(C(F)(F)F)cnn1[C@H]1CC[C@@H](Oc2nc(N3CCOCC3)cc3ncccc23)CC1` [Compound 17h, 4-(5-(((1s,4s)-4-(5-methyl-4-(trifluoromethyl)-1H-pyrazol-1-yl)cyclohexyl)oxy)-1,6-naphthyridin-7-yl)morpholine], for which the EC50 in assay [1] (setting [4]), in assay [1] (setting [5]) and in assay [1] (setting [6]) was 10 to 100 µM each time. Further, the half-maximal inhibitory concentration (IC50) in assay [2] (Table 1) lay in the range of 1 to 10 nM; in assay [3] (Table 1), 1000 to 10000 nM.
As to `CCOCCOc1cnc(N[C@H]2CC[C@@H](Oc3nc(N4CCOCC4)cc4ncc(Br)cc34)CC2)nc1` [Compound 18b, N-((1s,4s)-4-((3-Bromo-7-morpholino-1,6-naphthyridin-5-yl)oxy)cyclohexyl)-5-(2-ethoxyethoxy)pyrimidin-2-amine], the EC50 in assay [1] (setting [4]), in assay [1] (setting [5]) and in assay [1] (setting [6]) was 1 to 10 µM each time. Moreover, the IC50 in assay [2] (Table 1) was in the range of 1 to 10 nM; in assay [3] (Table 1) it was 10000 to 30000 nM.
For the compound `Cn1ccc(N[C@H]2CC[C@@H](Oc3nc(N4CCOCC4)cc4ncccc34)CC2)n1` [Compound 30, 1-methyl-N-((1s,4s)-4-((7-morpholino-1,6-naphthyridin-5-yl)oxy)cyclohexyl)-1H-pyrazol-3-amine], the EC50 in assay [1] (setting [4]) and in assay [1] (setting [6]) was 10 to 100 µM each time. The half-inhibitory concentration (IC50) lay in the range of 1 to 10 nM in assay [2] (Table 1) and 100 to 1000 nM in assay [3] (Table 1).
Take `CC(C)c1cnc(N[C@H]2CC[C@@H](Oc3nc(N4CCOCC4)cc4ncccc34)CC2)nc1` [Compound 33, 5-isopropyl-N-((1s,4s)-4-((7-morpholino-1,6-naphthyridin-5-yl)oxy)cyclohexyl)pyrimidin-2-amine]: the EC50 in assay [1] (setting [4]) and in assay [1] (setting [6]) was 1 to 10 µM each time. For the same compound, the IC50 is 1 to 10 nM in assay [2] (Table 1) and below 100 nM in assay [3] (Table 1).
Turning to `Cc1nccnc1N[C@H]1CC[C@@H](Oc2nc(N3CCOCC3)cc3ncccc23)CC1` [Compound 36, 3-methyl-N-((1s,4s)-4-((7-morpholino-1,6-naphthyridin-5-yl)oxy)cyclohexyl)pyrazin-2-amine], the half-maximal effective concentration (EC50) in assay [1] (setting [4]) and in assay [1] (setting [6]) was 1 to 10 µM throughout. The IC50 in assay [2] (Table 1) fell in the range of 0.5 to 1 nM; in assay [3] (Table 1), 100 to 1000 nM.
Consider `COc1nccnc1N[C@H]1CC[C@@H](Oc2nc(N3CCOCC3)cc3ncccc23)CC1` [Compound 39, 3-methoxy-N-((1s,4s)-4-((7-morpholino-1,6-naphthyridin-5-yl)oxy)cyclohexyl)pyrazin-2-amine], for which the EC50 in assay [1] (setting [4]) and in assay [1] (setting [6]) was 1 to 10 µM in each case. The IC50 was below 0.5 nM in assay [2] (Table 1) and 100 to 1000 nM in assay [3] (Table 1).
For `Fc1cnc(N[C@H]2CC[C@@H](Oc3nc(N4CCOCC4)cc4ncccc34)CC2)nc1` [Compound 40, 5-fluoro-N-((1s,4s)-4-((7-morpholino-1,6-naphthyridin-5-yl)oxy)cyclohexyl)pyrimidin-2-amine], the EC50 in assay [1] (setting [4]) and in assay [1] (setting [6]) was 1 to 10 µM throughout. In addition, the figures for the IC50 in assay [2] (Table 1) and in assay [3] (Table 1) were below 0.5 nM and 100 to 1000 nM, respectively.
Consider `Clc1cnc(N[C@H]2CC[C@@H](Oc3nc(N4CCOCC4)cc4ncccc34)CC2)nc1` [Compound 41, 5-chloro-N-((1s,4s)-4-((7-morpholino-1,6-naphthyridin-5-yl)oxy)cyclohexyl)pyrimidin-2-amine], for which the EC50 in assay [1] (setting [4]) and in assay [1] (setting [6]) was 1 to 10 µM each time. The IC50 in assay [2] (Table 1) fell in the range of 0.5 to 1 nM; in assay [3] (Table 1), 100 to 1000 nM.
For `Ic1cnc(N[C@H]2CC[C@@H](Oc3nc(N4CCOCC4)cc4ncccc34)CC2)nc1` [Compound 42, 5-iodo-N-((1s,4s)-4-((7-morpholino-1,6-naphthyridin-5-yl)oxy)cyclohexyl)pyrimidin-2-amine], the EC50 in assay [1] (setting [4]) and in assay [1] (setting [6]) was 1 to 10 µM in each case. For the same compound, the figures for the IC50 in assay [2] (Table 1) and in assay [3] (Table 1) were 0.5 to 1 nM and 100 to 1000 nM, respectively.
`FC(F)(F)c1ccnc(N[C@H]2CC[C@@H](Oc3nc(N4CCOCC4)cc4ncccc34)CC2)n1` [Compound 47, N-((1s,4s)-4-((7-morpholino-1,6-naphthyridin-5-yl)oxy)cyclohexyl)-4-(trifluoromethyl)pyrimidin-2-amine]: the EC50 in assay [1] (setting [4]) and in assay [1] (setting [6]) was 1 to 10 µM throughout. Further, the values for the IC50 in assay [2] (Table 1) and in assay [3] (Table 1) were 1 to 10 nM and below 100 nM, respectively.
Turning to `CN(C)C(=O)c1cnc(N[C@H]2CC[C@@H](Oc3nc(N4CCOCC4)cc4ncc(NS(C)(=O)=O)cc34)CC2)nc1` [LFA030, 2-[[4-[[3-(Methanesulfonamido)-7-morpholino-1,6-naphthyridin-5-yl]oxy]cyclohexyl]amino]-N,N-dimethyl-pyrimidine-5-carboxamide], the results for the IC50 in assay [2] (Table 2) and in assay [3] (Table 2) were below 0.5 nM and 100 to 1000 nM, respectively.
For `Nc1cnc2cc(N3CCOCC3)nc(O[C@H]3CC[C@@H](Nc4ncccn4)CC3)c2c1` [LFA107, 7-morpholino-5-[4-(pyrimidin-2-ylamino)cyclohexoxy]-1,6-naphthyridin-3-amine], the IC50 in assay [2] (Table 2) is below 0.5 nM; in assay [3] (Table 2) it was below 100 nM.
